Source: US9447042B2, “Endoparasite control agent” (THE UNIVERSITY OF TOKYO, priority 2011, dated 2016)
Read-outs that look alike come from different tables or passages of the source.

Experiments:
[1] = biological target: T1, Ascaris suum succinate-ubiquinone reductase (mitochondrial complex II) (Ascaris suum, UniProt O44074+P92506+P92507); assay: In vitro inhibitory activity on Ascaris suum succinate-ubiquinone reductase (mitochondrial complex II); format: biochemical; conditions: for Selectivity B/A: porcine IC50 (B) / Ascaris suum IC50 (A)
T1 construct: from tissue; host or cells: mitochondria from adult Ascaris suum muscle
T1 sequence (O44074 22-282): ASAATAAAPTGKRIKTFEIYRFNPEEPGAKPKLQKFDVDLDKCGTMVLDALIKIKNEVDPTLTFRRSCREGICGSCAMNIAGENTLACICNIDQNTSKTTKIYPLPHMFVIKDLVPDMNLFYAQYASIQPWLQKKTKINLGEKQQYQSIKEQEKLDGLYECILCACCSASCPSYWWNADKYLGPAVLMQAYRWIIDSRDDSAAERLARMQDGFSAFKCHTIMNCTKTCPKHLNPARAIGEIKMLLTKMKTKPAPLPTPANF
T1 sequence (P92506 32-188): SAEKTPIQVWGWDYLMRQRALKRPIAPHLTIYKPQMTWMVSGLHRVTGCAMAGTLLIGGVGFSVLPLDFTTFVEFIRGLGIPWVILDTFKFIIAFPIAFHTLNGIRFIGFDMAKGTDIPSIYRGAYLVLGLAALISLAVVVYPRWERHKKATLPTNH
T1 sequence (P92507 26-156): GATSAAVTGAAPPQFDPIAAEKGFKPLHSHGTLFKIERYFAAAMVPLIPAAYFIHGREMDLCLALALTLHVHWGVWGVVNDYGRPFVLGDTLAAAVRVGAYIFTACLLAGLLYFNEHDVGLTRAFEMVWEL
T1 sequence (Q33862 19-645 partner): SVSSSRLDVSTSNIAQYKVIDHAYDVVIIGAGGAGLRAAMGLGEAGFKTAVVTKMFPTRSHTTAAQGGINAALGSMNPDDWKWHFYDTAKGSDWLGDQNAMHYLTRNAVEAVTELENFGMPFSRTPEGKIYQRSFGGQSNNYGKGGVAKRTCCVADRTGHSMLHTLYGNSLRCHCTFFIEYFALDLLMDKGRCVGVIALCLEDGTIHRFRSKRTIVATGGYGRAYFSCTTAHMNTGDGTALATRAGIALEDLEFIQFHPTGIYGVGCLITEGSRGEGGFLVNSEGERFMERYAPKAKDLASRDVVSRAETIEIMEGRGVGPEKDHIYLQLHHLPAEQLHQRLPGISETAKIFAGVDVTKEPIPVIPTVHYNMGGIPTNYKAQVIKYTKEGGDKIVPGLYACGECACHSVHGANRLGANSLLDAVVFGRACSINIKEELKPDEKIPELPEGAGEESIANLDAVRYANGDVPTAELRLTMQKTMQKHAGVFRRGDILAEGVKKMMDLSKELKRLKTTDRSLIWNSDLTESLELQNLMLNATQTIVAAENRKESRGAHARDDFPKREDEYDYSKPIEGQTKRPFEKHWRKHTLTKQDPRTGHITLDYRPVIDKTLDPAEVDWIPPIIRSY
Experimental: In Vitro Measurement of Inhibitory Activity on Ascaris suum Succinate-Ubiquinone Reductase (Mitochondrial Complex II)
(§1) To a solution containing 50 mM potassium phosphate (pH 7.4) and 0.1% (w/v) sucrose monolaurate, an electron acceptor ubiquinone-2 (UQ2) was added at a final concentration of 60 μM, and the mixture was allowed to stand at 25° C. for 20 minutes. To this, potassium cyanide (final concentration: 2 mM) and mitochondria prepared from adult Ascaris suum muscle were added, and thorough mixing was done. To aliquots of the mixture, an inhibitor to be tested was added at various concentrations, and the mixtures were allowed to stand at 25° C. for 3 minutes. The enzymatic reaction was initiated by addition of potassium succinate (final concentration: 10 mM).
(§2) In the table, “-” indicates “not tested,” and “Ascaris suum IC50 value (A)” indicates an IC50 value (50% inhibitory concentration) for inhibition of succinate-ubiquinone reductase (mitochondrial complex II) of Ascaris suum. From the extent of inhibition of this respiratory enzyme, the parasite control activity can be estimated. “Porcine mitochondria IC50 value (B)” indicates an IC50 value for inhibition of succinate-ubiquinone reductase (mitochondrial complex II) of the host pig. From the extent of inhibition of this respiratory enzyme, the influence on the host can be estimated. A greater selectivity index B/A indicates a higher safety for the host.

[2] = biological target: T2, Porcine succinate-ubiquinone reductase (mitochondrial complex II) (Sus scrofa, UniProt A5GZW8+D0VWV4+Q007T0); assay: In vitro inhibitory activity on porcine succinate-ubiquinone reductase (mitochondrial complex II); format: biochemical, pig
T2 construct: from tissue; host or cells: mitochondria from porcine heart muscle
T2 sequence (Q007T0 29-280): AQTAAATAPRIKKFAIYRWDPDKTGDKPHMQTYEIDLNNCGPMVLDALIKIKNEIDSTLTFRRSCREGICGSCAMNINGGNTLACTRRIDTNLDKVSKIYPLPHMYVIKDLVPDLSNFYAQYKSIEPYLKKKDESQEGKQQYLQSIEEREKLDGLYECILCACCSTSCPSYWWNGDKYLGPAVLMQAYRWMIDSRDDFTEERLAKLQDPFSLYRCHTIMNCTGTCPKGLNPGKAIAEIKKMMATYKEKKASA
T2 sequence (D0VWV4 30-169): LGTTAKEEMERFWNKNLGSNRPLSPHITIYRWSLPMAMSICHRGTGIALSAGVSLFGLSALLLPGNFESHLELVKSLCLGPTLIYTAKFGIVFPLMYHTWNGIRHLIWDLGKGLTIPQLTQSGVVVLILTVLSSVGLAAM
T2 sequence (A5GZW8 57-159 limits assumed): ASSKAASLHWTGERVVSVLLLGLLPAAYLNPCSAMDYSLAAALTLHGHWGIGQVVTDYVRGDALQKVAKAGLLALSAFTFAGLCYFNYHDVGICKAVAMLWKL
T2 sequence (Q0QF01 43-664 partner): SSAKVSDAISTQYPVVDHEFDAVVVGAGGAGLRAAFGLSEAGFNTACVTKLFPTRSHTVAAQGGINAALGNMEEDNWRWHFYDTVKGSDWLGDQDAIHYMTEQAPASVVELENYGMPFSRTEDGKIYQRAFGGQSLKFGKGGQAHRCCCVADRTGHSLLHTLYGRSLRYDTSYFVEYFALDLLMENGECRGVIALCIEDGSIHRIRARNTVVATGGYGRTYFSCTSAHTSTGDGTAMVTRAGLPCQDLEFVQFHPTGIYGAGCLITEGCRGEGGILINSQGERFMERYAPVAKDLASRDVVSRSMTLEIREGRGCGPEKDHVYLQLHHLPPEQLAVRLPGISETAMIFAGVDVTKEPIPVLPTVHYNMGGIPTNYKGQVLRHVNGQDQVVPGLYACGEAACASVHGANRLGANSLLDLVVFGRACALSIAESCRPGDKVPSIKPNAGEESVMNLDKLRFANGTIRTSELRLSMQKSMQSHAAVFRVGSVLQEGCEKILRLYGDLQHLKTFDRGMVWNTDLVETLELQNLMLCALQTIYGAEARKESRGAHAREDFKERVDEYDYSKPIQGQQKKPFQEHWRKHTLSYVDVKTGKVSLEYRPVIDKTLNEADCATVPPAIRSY
Experimental: In Vitro Measurement of Inhibitory Activity on Porcine Succinate-Ubiquinone Reductase (Mitochondrial Complex II)
as §1, with “porcine heart” for “adult Ascaris suum”
as §2

Haemonchus contortus = assay: Larval migration inhibition assay (LMIA) on Haemonchus contortus; format: in vivo; conditions: third-stage larvae
Experimental: In Vivo Activity on Haemonchus contortus
The test was conducted according to the larval migration inhibition assay (LMIA: Demeler et al., 2010). A larval suspension was prepared so as to contain 100 to 120 third-stage larvae of Haemonchus contortus per 20 μL, and then 20 μL of the larval suspension was added to each well on a breeding plate to which compound solutions adjusted to predetermined concentrations were previously added at […] each. The breeding plate was maintained for breeding at 28° C. for 24 hours. Meanwhile, to a plate for larval migration observation, 400 μL of a 1.5% agar solution was added and left to stand until coagulation. Then, the larvae were allowed to migrate through a sieve from the breeding plate to the plate for larval migration observation, and the plates were maintained for breeding at 28° C. for another 24 hours. The larvae which had migrated, and the larvae which had not migrated were counted, the percentage of migration inhibition was calculated, and the activity was graded based on the following criterion. In the table, “-” indicates “not tested.”
Percentage of Migration Inhibition

[3] = at 90 μM, porcine heart muscle mitochondria
[4] = at 9 μM, porcine heart muscle mitochondria
[5] = mitochondria from adult Ascaris suum muscle, read-out: Ascaris suum IC50 value (A)
[6] = mitochondria from porcine heart muscle, read-out: Porcine mitochondria IC50 value (B)

| Porcine mitochondria inhibition at 90 μM [2, 3] | IC50 [1, 5] [nM] | Structure (SMILES) | IC50 [1] [nM] | Selectivity B/A [1] | further results |
| --- | --- | --- | --- | --- | --- |
|  |  | CC(Cc1ccc(Cl)cc1Cl)NC(=O)c1ccccc1C(F)(F)F (stereo not drawn) [Compound 1-32] | 2.15 | >4190 | Porcine mitochondria inhibition at 9 μM [2, 4]: no inhibition at 9 μM; Percentage of migration inhibition (grade) (Haemonchus contortus; 0.1 ppm): C (10 to 39%); Percentage of migration inhibition (grade) (Haemonchus contortus; 1 ppm): C (10 to 39%); Percentage of migration inhibition (grade) (Haemonchus contortus; 10 ppm): B (40 to 69%) |
|  |  | CC(Cc1ccc(F)cc1F)NC(=O)c1ccccc1C(F)(F)F (stereo not drawn) [Compound 1-64] | 9 | >9150 | Porcine mitochondria inhibition at 9 μM [2, 4]: no inhibition at 9 μM |
|  |  | CC(Cc1ccc(Cl)c(Cl)c1)NC(=O)c1ccccc1C(F)(F)F (stereo not drawn) [Compound 1-81] | 4.8 | >18800 | inhibition at 90 µM [2, 3]: 10% |
|  |  | CC(C)(Cc1ccc(Cl)c(Cl)c1)NC(=O)c1ccccc1C(F)(F)F [Compound 1-88] | 12 |  |  |
|  |  | O=C(NCCc1c(Cl)cc(C(F)(F)F)cc1Cl)c1ccccc1C(F)(F)F [Compound 1-110] | 4.07 | >2460 | Porcine mitochondria inhibition at 10 μM ([2]; at 10 μM, porcine heart muscle mitochondria): no inhibition at 10 μM |
|  | 5.47 | CC(C)(C)c1ccc(CNC(=O)c2ccccc2C(F)(F)F)cc1 [Compound 2-1] |  | 20295 | IC50 [2, 6]: 111000 nM; Percentage of migration inhibition (grade) (Haemonchus contortus; 0.1 ppm): C (10 to 39%); Percentage of migration inhibition (grade) (Haemonchus contortus; 1 ppm): B (40 to 69%) |
| no inhibition at 90 μM | 127 | CC(C)(NC(=O)c1ccccc1C(F)(F)F)c1ccccc1 [Compound 2-3] |  | >709 |  |
| no inhibition at 90 μM | 70.5 | O=C(NC(c1ccc(Cl)cc1)C1CC1)c1ccccc1C(F)(F)F (stereo not drawn) [Compound 2-4] |  | >1280 |  |
|  | 3.83 | Cc1cc(CNC(=O)c2ccccc2C(F)(F)F)ccc1-c1ccc(OC(F)(F)F)cc1 [Compound 2-5] |  | >2350 | Porcine mitochondria inhibition at 9 μM [2, 4]: no inhibition at 9 μM |
| 10% at 90 μM | 28.3 | O=C(NCc1ccc(Cl)cc1Cl)c1ccccc1C(F)(F)F [Compound 2-6] |  | >3180 | Percentage of migration inhibition (grade) (Haemonchus contortus; 0.1 ppm): C (10 to 39%); Percentage of migration inhibition (grade) (Haemonchus contortus; 1 ppm): C (10 to 39%); Percentage of migration inhibition (grade) (Haemonchus contortus; 10 ppm): C (10 to 39%) |
| no inhibition at 90 μM | 14 | CC(NC(=O)c1ccccc1C(F)(F)F)c1ccc(Cl)cc1Cl (stereo not drawn) [Compound 2-7] |  | >6430 |  |
| no inhibition at 90 μM | 38.2 | CC(NC(=O)c1ccccc1C(F)(F)F)c1ccc(Cl)cc1 (stereo not drawn) [Compound 2-8] |  | >2360 |  |
|  |  | O=C(NCCc1ncc(C(F)(F)F)cc1Cl)c1ccccc1C(F)(F)F [Compound 3-7] | 1.6 | 56250 | IC50 [2]: 90000 nM; Percentage of migration inhibition (grade) (Haemonchus contortus; 0.1 ppm): C (10 to 39%); Percentage of migration inhibition (grade) (Haemonchus contortus; 1 ppm): C (10 to 39%); Percentage of migration inhibition (grade) (Haemonchus contortus; 10 ppm): C (10 to 39%); Percentage of migration inhibition (grade) (Haemonchus contortus; 100 ppm): B (40 to 69%) |
|  |  | O=C(NCCOc1ccc(Cl)cc1Cl)c1ccccc1C(F)(F)F [Compound 4-1] | 3.44 |  | Percentage of migration inhibition (grade) (Haemonchus contortus; 0.1 ppm): C (10 to 39%); Percentage of migration inhibition (grade) (Haemonchus contortus; 1 ppm): C (10 to 39%); Percentage of migration inhibition (grade) (Haemonchus contortus; 10 ppm): C (10 to 39%) |
|  |  | CC(COc1ccc(Cl)cc1Cl)NC(=O)c1ccccc1C(F)(F)F (stereo not drawn) [Compound 4-2] | 5.15 |  |  |
|  |  | Cc1ccc(OCCNC(=O)c2ccccc2C(F)(F)F)c(C)c1 [Compound 4-3] | 1.98 |  |  |
| 16% at 90 μM | 8.36 | O=C(NCCCOc1ccc(Cl)cc1Cl)c1ccccc1C(F)(F)F [Compound 4-4] |  | >10770 |  |
| 11% at 90 μM | 6.07 | Cc1ccc(SCCCNC(=O)c2ccccc2C(F)(F)F)c(C)c1 [Compound 4-5] |  | >14830 |  |
|  | 8.34 | O=C(NCCCSc1ccc(Cl)cc1Cl)c1ccccc1C(F)(F)F [Compound 4-6] |  | >1079 | Porcine mitochondria inhibition at 9 μM [2, 4]: no inhibition at 9 μM |
|  |  | O=C(NCCCc1ccc(Cl)cc1Cl)c1ccccc1C(F)(F)F [Compound 4-7] | 1.78 | 57870 | IC50 [2, 6]: 103000 nM; Percentage of migration inhibition (grade) (Haemonchus contortus; 0.1 ppm): C (10 to 39%); Percentage of migration inhibition (grade) (Haemonchus contortus; 1 ppm): C (10 to 39%); Percentage of migration inhibition (grade) (Haemonchus contortus; 10 ppm): C (10 to 39%); Percentage of migration inhibition (grade) (Haemonchus contortus; 100 ppm): B (40 to 69%) |
|  |  | CC(CCc1ccc(Cl)cc1Cl)NC(=O)c1ccccc1C(F)(F)F (stereo not drawn) [Compound 4-8] | 2.61 | >3448 | inhibition at 9 µM [2, 4]: 5% |

| Structure (SMILES) | Porcine mitochondria inhibition at 90 μM [2, 3] | IC50 [1, 5] [nM] | IC50 [1] [nM] | Selectivity B/A [1] | further results |
| --- | --- | --- | --- | --- | --- |
| O=C(NCCc1ccc(Cl)cc1)c1ccccc1C(F)(F)F [Compound 1-3] | no inhibition at 90 μM |  | 1.21 | >27000 |  |
| O=C(NCCc1ccc(Cl)cc1Cl)c1ccccc1C(F)(F)F [Compound 1-16] | no inhibition at 90 μM |  | 3.34 | >74400 | Percentage of migration inhibition (grade) (Haemonchus contortus; 0.1 ppm): C (10 to 39%); Percentage of migration inhibition (grade) (Haemonchus contortus; 1 ppm): C (10 to 39%); Percentage of migration inhibition (grade) (Haemonchus contortus; 10 ppm): C (10 to 39%); Percentage of migration inhibition (grade) (Haemonchus contortus; 100 ppm): B (40 to 69%) |
| Cc1ccc(CCNC(=O)c2ccccc2C(F)(F)F)c(C)c1 [Compound 1-27] | no inhibition at 90 μM |  | 1.69 | >53300 |  |
| O=C(NCCc1ccccc1)c1ccccc1C(F)(F)F [Compound 1-111] | no inhibition at 90 μM |  | 13.1 | >6870 |  |
| CC(C)(CNC(=O)c1ccccc1C(F)(F)F)c1ccc(Cl)cc1Cl [Compound 1-112] | no inhibition at 90 μM |  | 1.5 | >60000 |  |
